Data: patent US20100243432A1, “HUMIDIFIER” (priority 2007, published 2010)

Assay: solubility of AgCl calculated from solubility product
Type: physicochemical
Settings: in water
Description: As described above, it can be seen that when the silver ions are eluted through the electrolysis, the sterilization can be more efficiently conducted than when the silver ions are eluted through other methods.

Which “dissolvable AgCl, as a concentration of the silver ions” value does the source give for `[Cl][Ag]` [AgCl, silver chloride] here?
Its value is “approximately 1.5 mg/L”.
